As usually defined, the IC50 is the point on the concentration scale where inhibition reaches its midpoint. Higher therefore signals a need for much substance. Usually EC50 stands for the concentration that produces a half-maximal response.

Like-named read-outs stand apart in the source and are kept apart here.

The source of these data is PMC6943558, “Covalent Inhibition of the Histamine H3 Receptor” (Molecules, 2019).

The target of test [1] is T1, hH3R (human histamine H3 receptor) (Homo sapiens, UniProt Q9Y5N1).
T1 construct: gene HRH3; transiently transfected cDNA, HEK293T cell homogenates
Description: [3H]NAMH displacement, cell homogenates. In kind it is biochemical.

The target of test [2] is T1, hH3R (human histamine H3 receptor). The experiment in a line: […]GTPγS binding, cell homogenates. In kind it is biochemical. In general terms: GTPγS is a poorly hydrolysed GTP analogue; its binding reports G protein activation.
Test [3] concerns the target T2, Nanoluc-H4R (histamine H4 receptor) (Homo sapiens, UniProt Q9H3N8).
T2 construct: gene HRH4; NanoLuc reporter fusion (Nluc-H4R); details not in the main text
Description: NanoBRET displacement of clobenpropit-BODIPY. The following applies: fluorescent tracer clobenpropit-BODIPY. In kind it is cell-based. On the technique in general: In BRET a luciferase serves as donor, and the signal depends on an acceptor being close.

In test [4] the target is T1, hH3R (human histamine H3 receptor). The experiment in a line: […]GTPγS binding, cell homogenates. The test is classed as biochemical. This is another data set of the same source.

T1 sequence (Q9Y5N1 whole entry): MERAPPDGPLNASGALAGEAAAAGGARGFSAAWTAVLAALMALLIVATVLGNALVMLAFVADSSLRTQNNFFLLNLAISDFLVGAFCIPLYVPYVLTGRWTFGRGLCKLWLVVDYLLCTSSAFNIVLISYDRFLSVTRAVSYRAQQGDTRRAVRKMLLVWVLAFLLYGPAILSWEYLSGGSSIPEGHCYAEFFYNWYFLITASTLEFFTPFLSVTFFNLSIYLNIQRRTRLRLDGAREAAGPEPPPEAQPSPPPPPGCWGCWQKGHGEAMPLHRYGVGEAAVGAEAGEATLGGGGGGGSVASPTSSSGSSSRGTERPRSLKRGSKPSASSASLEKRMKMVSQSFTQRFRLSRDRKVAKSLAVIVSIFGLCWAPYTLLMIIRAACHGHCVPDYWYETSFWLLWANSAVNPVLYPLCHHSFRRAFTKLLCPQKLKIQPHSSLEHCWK
T2 sequence (Q9H3N8 whole entry, the tested form may be a part): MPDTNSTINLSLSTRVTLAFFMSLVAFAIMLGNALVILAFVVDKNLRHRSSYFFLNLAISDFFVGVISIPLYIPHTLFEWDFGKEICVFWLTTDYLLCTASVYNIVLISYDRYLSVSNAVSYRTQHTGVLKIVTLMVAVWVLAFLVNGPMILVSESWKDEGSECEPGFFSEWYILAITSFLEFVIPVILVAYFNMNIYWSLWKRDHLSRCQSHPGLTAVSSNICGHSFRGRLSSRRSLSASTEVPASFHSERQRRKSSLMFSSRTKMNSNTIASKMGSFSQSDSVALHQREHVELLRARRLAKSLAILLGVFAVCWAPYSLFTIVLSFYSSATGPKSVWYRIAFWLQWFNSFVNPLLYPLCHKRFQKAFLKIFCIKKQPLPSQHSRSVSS

Take `C#Cc1nc(C)cc(N2CCN(C3CCC3)CC2)n1` [compound 20, 20]: in test [1] (read-out: pKi (converted)), the Ki is over 10000 nM.
On to `Cc1nc(C(C)C)cc(N2CCN(C3CCC3)CC2)n1` [compound 36, 36], for which the Ki in test [1] (read-out: pKi (converted)) is 1260 nM.
For `Cc1nc(-c2ccccc2)cc(N2CCN(C)CC2)n1` [compound 2, 2], in test [1] (read-out: pKi (converted)), the Ki was 79.4 nM.
On the same count and under the same terms, under `C=Cc1nc(C(C)C)cc(N2CC(N(C)C)C2)n1` [compound 21, 21] stands over 10000 nM; under `C=Cc1nc(C(C)C)cc(N2CCN(C3CCC3)CC2)n1` [compound 22, 22], 3160 nM.
Consider `CCc1nc(C(C)C)cc(N2CC(N(C)C)C2)n1` [compound 35, 35], for which, in test [1] (read-out: pKi (converted)), the Ki is over 10000 nM.
Turning to `CC(C)c1cc(N2CC(N(C)C)C2)nc(N)n1` [compound 10, 10], the Ki in test [1] (read-out: pKi (converted)) was 50.1 nM.
As to `Cc1nc(C(C)C)cc(N2CC(N(C)C)C2)n1` [compound 34, 34], the Ki in test [1] (read-out: pKi (converted)) is over 10000 nM.
Compound `S=C=Nc1cccc(N2CCN(C3CCC3)CC2)c1` [compound 44, 1-Cyclobutyl-4-(3-isothiocyanatophenyl)piperazine] had an IC50 in test [2] of 794 nM. For the same compound, in test [3], the “no tracer displacement up to 10 μM” value is reported as over 10 µM. The Ki in test [1] (read-out: pKi (converted)) was 316 nM. In test [4], this compound had an EC50 of 79.4 nM.
In the case of `C=Cc1nc(-c2ccccc2)cc(N2CCN(C)CC2)n1` [compound 1, VUF14480], the Ki in test [1] (read-out: pKi (converted)) is over 10000 nM.
As for `O=C(CCl)Nc1cccc(N2CCN(C3CCC3)CC2)c1` [compound 43, 43], the Ki in test [1] (read-out: pKi (converted)) is 631 nM.
On to `NCCc1c[nH]cn1` [histamine], for which the Ki result in test [1] (50 mM Tris-HCl pH 7.4, 25 °C, vehicle-pretreated homogenates) was “Radioligand displacement curves of [^3H]NAMH with histamine on cell homogenates”.
For the compound `C=Cc1nc(C)cc(N2CCN(C3CCC3)CC2)n1` [compound 23, 23], the Ki in test [1] (read-out: pKi (converted)) was 3980 nM.
The same measure, in the same setting: under `CCc1nc(C(C)C)cc(N2CCN(C3CCC3)CC2)n1` [compound 37, 37] stands 3160 nM; under `CC(C)c1cc(N2CCN(C3CCC3)CC2)nc(N)n1` [compound 11, 11], 200 nM.
On to `Cc1cc(N2CCN(C3CCC3)CC2)nc(N)n1` [compound 12, 12], for which the Ki in test [1] (read-out: pKi (converted)) is 316 nM.
For `Nc1cccc(N2CCN(C3CCC3)CC2)c1` [compound 42, 3-(4-Cyclobutylpiperazin-1-yl)aniline], the “no tracer displacement up to 10 μM” value in test [3] was over 10 µM. For the same compound, the Ki in test [1] (read-out: pKi (converted)) was 1260 nM.
